# Laboratory results: PubChem BioAssay (NCI)
#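 Protocol summary: plate cells (96-well), add compound at 5 concentrations, incubate 48 h, interpolate endpoints linearly. Definition used: TGI = concentration required for complete inhibition of growth.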
# Tested on: SN12K1 renal
# Test: NCI anticancer screen, dose series, 48 h
smiles,measurement,value
O=C1C(=O)c2ccccc2C(O)=C1CC=C(Cl)Cl,TGI,113 µM
